Assay [1] deals with T1, Hp-FAR-2 (Heligmosomoides polygyrus, UniProt A0A183GLK6).
T1 construct: mature protein, residues 18-180 of 180 (signal peptide removed), N-terminal 6-His tag, pET histev N'term, E. coli BL21(DE3), Ni-NTA and SEC; ~17-18 kDa on SDS-PAGE
The assay can be described thus: fluorescence titration, one-site fit. It counts as binding.

In assay [2] the target is T1, Hp-FAR-2. The experiment in a line: fluorescence titration of retinol, one-site fit. It counts as binding.

Among the data in doi:10.1101/2025.06.05.657999, “A secreted fatty acid- and retinol- binding protein from Heligmosomoides polygyrus suppresses host macrophage polarization” (bioRxiv, 2025) are Kd values, retold here.

Molecules are shown by their SMILES.

T1 sequence (A0A183GLK6 entry or part of it): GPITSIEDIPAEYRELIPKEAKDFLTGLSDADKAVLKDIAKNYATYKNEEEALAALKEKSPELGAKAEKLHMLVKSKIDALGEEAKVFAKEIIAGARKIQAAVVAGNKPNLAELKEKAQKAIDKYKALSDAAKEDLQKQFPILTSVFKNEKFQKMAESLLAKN

What is called Kd is the constant that tells how readily two partners part at equilibrium. A lower Kd goes with tighter binding. For the compound `CN(C)c1cccc2c(S(=O)(=O)NCCCCCCCCCCC(=O)O)cccc12` [DAUDA], the Kd on Hp-FAR-2 [1] stood at 2.65 µM.
The compound `CC1=C(/C=C/C(C)=C/C=C/C(C)=C/CO)C(C)(C)CCC1` [retinol] returned a Kd at Hp-FAR-2 [2] of 6.55 µM.
